Assay results published in patent publication US8183236B2, “Compounds with HIV-1 integrase inhibitory activity and use thereof as anti-HIV/AIDS therapeutics” (University of Southern California, priority 2007, dated 2012).

What was measured:
[1] = target: T1, HIV-1 integrase (wild-type IN) (Human immunodeficiency virus type 1 group M subtype B, UniProt P12497); assay: HIV-1 integrase 3′-processing assay (32P-labeled 21-mer, gel); format: biochemical
Excerpt: (§1) The oligonucleotides 21 top, 5′-[…]-3′ (SEQ ID NO:1) and 21 bot, 5′-[…]-3′ (SEQ ID NO:2) were purchased from Norris Cancer Center Core Facility (University of Southern California) and purified by UV shadowing on polyacrylamide gel. To analyze the extent of 3′-processing and strand transfer using 5′-end labeled substrates, 21 top was 5′-end labeled using T4 polynucleotide kinase (Epicentre, Madison, Wis.) and γ [^32P]-ATP (Amersham Biosciences or ICN). The kinase was heat-inactivated and 21 bot was added in 1.5-molar excess. The mixture was heated at 95° C., allowed to cool slowly to room temperature, and run through a spin 25 mini-column (USA Scientific) to separate annealed double-stranded oligonucleotide from unincorporated material.
(§2) To determine the extent of 3′-processing and strand transfer, wild-type IN was preincubated at a final concentration of 200 nM with the inhibitor in reaction buffer (50 mM NaCl, 1 mM HEPES, pH 7.5, 50 μM EDTA, 50 μM dithiothreitol, 10% glycerol (w/v), 7.5 mM MnCl2, 0.1 mg/ml bovine serum albumin, 10 mM 2-mercaptoethanol, 10% dimethyl sulfoxide, and 25 mM MOPS, pH 7.2) at 30° C. for 30 min. Then, 20 nM of the 5′-end ^32P-labeled linear oligonucleotide substrate was added, and incubation was continued for an additional one hour. Reactions were quenched by the addition of an equal volume (16 μl) of loading dye (98% deionized formamide, 10 mM EDTA, 0.025% xylene cyanol and 0.025% bromophenol blue). An aliquot (5 μl) was electrophoresed on a denaturing 20% polyacrylamide gel (0.09 M tris-borate pH 8.3, 2 mM EDTA, 20% acrylamide, 8M urea).
(§3) Gels were dried, exposed in a PhosphorImager cassette, and analyzed using a Typhoon 8610 Variable Mode Imager (Amersham Biosciences) and quantitated using ImageQuant 5.2. Percent inhibition (% I) was calculated using the following equation: %I=100×[1−(D−C)/(N−C)]
(§4) where C, N, and D are the fractions of 21-mer substrate converted to 19-mer (3′-processing product) or strand transfer products for DNA alone, DNA plus IN, and IN plus drug, respectively. The IC50 values were determined by plotting the logarithm of drug concentration versus percent inhibition to obtain concentration that produced 50% inhibition. […]

[2] = target: T1, HIV-1 integrase (wild-type IN); assay: HIV-1 integrase strand transfer assay (32P-labeled 21-mer, gel); format: biochemical
Excerpt: as §1, §2, §3, §4

[3] = wild-type IN 200 nM, 7.5 mM MnCl2, read-out: Inhibition of IN Catalytic Activities IC50 (μM) 3′-processing
[4] = wild-type IN 200 nM, 7.5 mM MnCl2, read-out: Inhibition of IN Catalytic Activities IC50 (μM) Strand Transfer
[5] = unit inferred, read-out: IN inhibition activity 3′-processing
[6] = unit inferred, read-out: IN inhibition activity Strand transfer
[7] = Table 53, structurally diverse compounds, read-out: IN inhibition activity 3′-processing
[8] = Table 53, structurally diverse compounds, read-out: IN inhibition activity Strand transfer
[9] = unit inferred, read-out: HIV-1 IN Inhibitory Activities 3′-processing
[10] = unit inferred, read-out: HIV-1 IN Inhibitory Activities Strand transfer
[11] = Table 54, read-out: IN inhibition activity 3′-processing
[12] = Table 54, read-out: IN inhibition activity Strand transfer

Compound	IC50 [1, 3] [µM]	IC50 [2, 4] [µM]	IC50 [1, 5] [µM]	IC50 [2, 6] [µM]	further results
Cc1ccc(C=C2SC(=S)N(CC(=O)Nc3cc([N+](=O)[O-])ccc3O)C2=O)cc1 [Compound X191]	84 ± 24	80 ± 18			
O=C(CCCN1C(=O)C(=Cc2cccs2)SC1=S)Nc1ccc(O)c(C(=O)O)c1 [Compound X169]	44 ± 20	35 ± 16			
COCCN1C(=O)/C(=C\c2ccc(OCc3ccc(C(=O)O)cc3)c(OC)c2)SC1=S [OT35]	41 ± 11	38 ± 16			
O=C(O)c1cccc(-c2ccc(/C=N/Nc3nc(N4CCOCC4)nc(N4CCOCC4)n3)o2)c1 [AV15A16]			> 100	> 100	
O=C(O)CN1C(=O)/C(=C2\SC(=S)N(C(Cc3ccccc3)C(=O)O)C2=O)c2ccccc21 (centres unmarked) [GLD31]					IC50 [1, 7]: 92 ± 17 µM; IC50 [2, 8]: 66 ± 17 µM
O=C(N/N=C/c1ccc(/C=N/NC(=O)c2cc(O)cc(O)c2)cc1)c1cc(O)cc(O)c1 [Example X218]					IC50 [1, 9]: 76 µM; IC50 [2, 10]: 56 µM
COC(=O)c1ccccc1-c1ccc(/C=C(\C#N)c2nc3ccccc3[nH]2)o1 [AV15A46]			> 100	> 100	
COc1ccc(OC)c(C2C(C(=O)c3ccc(Cl)cc3)=C(O)C(=O)N2CCCCCC(=O)O)c1 (centres unmarked) [AS16]			88	40 ± 5	
O=C(O)C(Cc1c[nH]c2ccccc12)NS(=O)(=O)c1ccccc1[N+](=O)[O-] (centres unmarked) [Example X182]					IC50 [1, 9]: 88 µM; IC50 [2, 10]: 56 µM
Cc1ccc(C(=O)C2=C(O)C(=O)N(c3nccs3)C2c2ccc(Cl)cc2)cc1 (centres unmarked) [Compound M28A6]			56 ± 10	39 ± 3	
O=C(O)C(O)C(O)c1nc2cc3ccccc3cc2[nH]1 (centres unmarked) [GLD20]					IC50 [1, 7]: > 100 µM; IC50 [2, 8]: 46 ± 12 µM
O=C(CN1C(=O)C(=Cc2ccccc2Cl)SC1=S)Nc1cc([N+](=O)[O-])ccc1O [Compound X194]	20 ± 7	18 ± 11			
Cc1ccc(C(=O)N/C(=C/c2ccc(-c3ccc(Cl)cc3Cl)o2)C(=O)NCCCO)cc1 [Example X280]					IC50 [1, 9]: > 1000 µM; IC50 [2, 10]: 85 µM
COc1cc(/C=C2\C(=O)N(c3nnn[nH]3)N=C2C)cc(Cl)c1OC [GLD12A2]					IC50 [1, 11]: 5 ± 2 µM; IC50 [2, 12]: 4 ± 2 µM
CC(C)(C)c1ccc(C(=O)N/N=C/c2ccc(-c3cccc(C(=O)O)c3)o2)cc1 [AV15A36]			> 100	56 ± 22	
CCn1cc(C(=O)O)c(=O)c2c(N)c(F)c(N3CCNCC3)c(F)c21 [ROM3A7]	> 100	95			
CC1=C(C#N)c2nc(N)c(C#N)c(C)c2/C1=C/c1ccc(-c2ccccc2C(=O)O)o1 [AV15A54]			> 100	> 100	
COc1ccccc1-n1c(SCC(=O)NNC(=O)c2ccccc2O)nnc1-c1ccccc1O [AS9A6]			8 ± 1	6 ± 1	
CCOc1ccc(N(CC(=O)Nc2ccccc2C(=O)O)S(=O)(=O)c2ccc(Cl)cc2)cc1 [OT27]	69 ± 15	47 ± 22			
CCn1cc(C(=O)O)c(=O)c2cc(F)c(N3CCN(C(=S)S)CC3)cc21 [ROM3A6]	> 100	> 100			
N#Cc1c(/N=C/c2ccc(-c3cccc(C(=O)O)c3)o2)sc2c1CCCC2 [AV15A23]			89 ± 20	62 ± 7	
COc1ccccc1C(=O)Nc1ccc(O)c(-c2nc3cc(C)ccc3o2)c1 [XR22]					IC50 [1, 9]: < 100 µM; IC50 [2, 10]: < 100 µM
O=C(O)c1cccc(-c2ccc(/C=N/N(c3ccccc3)c3ccccc3)o2)c1 [AV15A27]			42 ± 24	26 ± 12	
Cc1ccc(-n2c(SCC(=O)NNC(=O)c3ccccc3O)nnc2-c2ccccc2)cc1 [AS120]			23 ± 6	12 ± 8	
COc1ccc(/C=C2/SC(=S)N(CC(=O)O)C2=O)cc1OCc1ccccc1F [OT37]	> 100	79 ± 8			
CC(C)Cn1c(=O)c(C(=O)Nc2ccccc2S(N)(=O)=O)c(O)c2ccccc21 [Compound X228]	40	16			
COc1ccc(C=C2SC(=S)N(CCC(=O)Nc3cccc(C(=O)O)c3)C2=O)cc1 [Compound X26]	> 100	> 100			

Compound	IC50 [1, 3] [µM]	IC50 [2, 4] [µM]	IC50 [1, 5] [µM]	IC50 [2, 6] [µM]	further results
O=C(CSc1nnc(-c2ccc(Cl)cc2)n1-c1ccccc1)NNC(=O)c1ccccc1O [AS9A9]			11 ± 3	5 ± 1	
COc1ccc(C2C(C(=O)c3ccc(Br)cc3)=C(O)C(=O)N2c2cc(C(C)(C)C)on2)cc1OC (centres unmarked) [AS171]			45 ± 8	43 ± 26	
N#C/C(=C\c1ccc(-c2cccc(C(=O)O)c2)o1)c1nc2ccccc2[nH]1 [AV15A7]			> 100	17	
O=C(CSc1nnc(-c2ccccc2)n1Cc1ccccc1)NNC(=O)c1ccccc1O [AS90]			21 ± 6	9 ± 7	
O=C(NC(=S)N1CCN(c2cc3c(cc2F)c(=O)c(C(=O)O)cn3C2CC2)CC1)c1ccc(Cl)cc1 [ROM3A9]	80	53			
CC1=NN(c2nnn[nH]2)C(=O)/C1=C\c1cc(Cl)c(O)c(Cl)c1 [GLD12A5]					IC50 [1, 11]: 11 ± 3 µM; IC50 [2, 12]: 13 ± 11 µM
Cc1cc(C)nc(SCc2nnc(SCC(=O)NNC(=O)c3ccccc3O)n2C)n1 [AS9A5]			< 100	< 100	
O=C(Nc1ccccc1C(=O)O)c1cccc(S(=O)(=O)Nc2cccc([N+](=O)[O-])c2)c1 [Example X148]					IC50 [1, 9]: 89 µM; IC50 [2, 10]: 90 µM
O=C(N/N=C/c1ccc(-c2ccc(O)c(C(=O)O)c2)o1)c1cccnc1 [SA1]	59	9	59 ± 1	9 ± 5	
Cc1ccc(C(=O)O)cc1NC(=O)CSc1nc2ccccc2s1 [GLD59]					IC50 [1, 7]: 63 ± 22 µM; IC50 [2, 8]: 17 ± 2 µM
CCc1ccc(C=C2SC(=S)N(CCC(=O)Nc3ccc(O)c(C(=O)O)c3)C2=O)cc1 [Compound X170]	15 ± 3	11 ± 5			
O=C(NC(=S)Nc1ccc(O)c(C(=O)O)c1)c1ccccc1 [Compound X199]	> 100	> 100			
O=C(O)CSc1nc(Nc2ccccc2)nc(N2CCOCC2)n1 [GLD2A18]			> 100	> 100	
Cc1c(C(c2ccc(O)c(O)c2)c2c(C)n(C)n(-c3ccccc3)c2=O)c(=O)n(-c2ccccc2)n1C [Example X219]					IC50 [1, 9]: 89 µM; IC50 [2, 10]: 31 µM
N#Cc1c(-c2ccc(Cl)cc2)cc(-c2ccccc2)nc1SCC(=O)O [GLD2A2]			98 ± 10	60 ± 12	
Cc1ccc(C=C2SC(=S)N(CC(=O)Nc3cccc(C(=O)O)c3)C2=O)cc1 [Compound X97]	98 ± 4	> 100			
CC1=NN2C(=N)/C(=C/c3ccc(-c4ccccc4Cl)o3)C(=O)N=C2S1 [RT42]	> 100	> 100			
O=C(CSc1nc2scc(-c3ccco3)c2c(=O)n1-c1ccccc1)NCc1ccco1 [OT51]	36 ± 29	14 ± 4			
O=C(CN1C(=O)C(=Cc2ccccc2Cl)SC1=S)Nc1ccc([N+](=O)[O-])cc1O [Compound X193]	> 100	> 100			
O=C(O)c1cccc(-c2ccc(/C=N/NC(=O)c3ccc(C(=O)N/N=C/c4ccc(-c5cccc(C(=O)O)c5)o4)cc3)o2)c1 [AV15A20]			> 100	95	
Cn1c(SCC(=O)NNC(=O)c2ccccc2O)nnc1-c1ccccc1 [AS9A1]			64 ± 4	58 ± 2	
O=C(CSc1nnc(Cc2ccccc2)n1C1CCCCC1)NNC(=O)c1ccccc1O [AS9A4]			21 ± 2	17 ± 1	
Cc1cccc(Nc2nc3nonc3nc2N/N=C/c2ccc(-c3cccc(C(=O)O)c3)o2)c1 [AV15A21]			10 ± 5	7 ± 2	
O=C(O)c1ccc(S(=O)(=O)c2ccc3c(c2)C(=O)N(c2ccc(O)c(C(=O)O)c2)C3=O)cc1 [Compound X125]	66 ± 6	44 ± 4			
O=C(O)c1cc(NC(=O)c2cccc3ccccc23)c(C(=O)O)cc1NC(=O)c1cccc2ccccc12 [Compound X8]	28	21			
N=C1S/C(=C/c2ccc(-c3ccccc3C(=O)O)o2)C(=O)N1c1ccc2c(c1)OCO2 [Compound T36]			12 ± 6	6.5 ± 1	
CCOC(=O)c1sc(N2C(=O)C(O)=C(C(=O)c3ccc(C)cc3)C2c2ccc(F)cc2)nc1C (centres unmarked) [Compound M28A18]			> 100	33 ± 25	
